{
  "source": "patent US6452005B1",
  "about": "“JAK-3 inhibitors for treating allergic disorders” (Parker Hughes Institute, priority 1999, dated 2002)",
  "key": {"IRK": {"biological_target": "T1, IRK (Homo sapiens, UniProt P06213)", "T1 construct": "IRK was immunoprecipitated from the lysates with an anti-IRb antibody; endogenous in cells; host or cells: HepG2 human hepatoma cells, insulin-stimulated", "T1 sequence (P06213 763-1382 limits assumed)": "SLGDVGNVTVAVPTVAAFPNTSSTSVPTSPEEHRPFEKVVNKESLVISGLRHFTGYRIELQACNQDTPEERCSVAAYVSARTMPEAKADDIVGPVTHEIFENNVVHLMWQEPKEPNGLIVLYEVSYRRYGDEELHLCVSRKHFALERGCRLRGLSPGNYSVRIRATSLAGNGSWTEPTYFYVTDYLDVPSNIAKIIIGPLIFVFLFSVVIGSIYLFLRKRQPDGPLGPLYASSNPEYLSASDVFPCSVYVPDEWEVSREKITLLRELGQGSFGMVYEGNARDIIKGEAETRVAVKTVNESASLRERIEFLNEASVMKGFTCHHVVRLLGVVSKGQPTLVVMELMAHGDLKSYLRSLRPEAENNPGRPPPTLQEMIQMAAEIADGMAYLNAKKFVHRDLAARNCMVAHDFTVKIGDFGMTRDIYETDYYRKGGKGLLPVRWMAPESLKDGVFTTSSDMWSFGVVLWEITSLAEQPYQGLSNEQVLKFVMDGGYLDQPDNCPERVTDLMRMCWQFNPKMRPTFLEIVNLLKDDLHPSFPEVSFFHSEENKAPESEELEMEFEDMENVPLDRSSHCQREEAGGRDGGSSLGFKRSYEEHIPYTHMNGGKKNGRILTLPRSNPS", "T1 sequence (P06213 28-758 partner limits assumed)": "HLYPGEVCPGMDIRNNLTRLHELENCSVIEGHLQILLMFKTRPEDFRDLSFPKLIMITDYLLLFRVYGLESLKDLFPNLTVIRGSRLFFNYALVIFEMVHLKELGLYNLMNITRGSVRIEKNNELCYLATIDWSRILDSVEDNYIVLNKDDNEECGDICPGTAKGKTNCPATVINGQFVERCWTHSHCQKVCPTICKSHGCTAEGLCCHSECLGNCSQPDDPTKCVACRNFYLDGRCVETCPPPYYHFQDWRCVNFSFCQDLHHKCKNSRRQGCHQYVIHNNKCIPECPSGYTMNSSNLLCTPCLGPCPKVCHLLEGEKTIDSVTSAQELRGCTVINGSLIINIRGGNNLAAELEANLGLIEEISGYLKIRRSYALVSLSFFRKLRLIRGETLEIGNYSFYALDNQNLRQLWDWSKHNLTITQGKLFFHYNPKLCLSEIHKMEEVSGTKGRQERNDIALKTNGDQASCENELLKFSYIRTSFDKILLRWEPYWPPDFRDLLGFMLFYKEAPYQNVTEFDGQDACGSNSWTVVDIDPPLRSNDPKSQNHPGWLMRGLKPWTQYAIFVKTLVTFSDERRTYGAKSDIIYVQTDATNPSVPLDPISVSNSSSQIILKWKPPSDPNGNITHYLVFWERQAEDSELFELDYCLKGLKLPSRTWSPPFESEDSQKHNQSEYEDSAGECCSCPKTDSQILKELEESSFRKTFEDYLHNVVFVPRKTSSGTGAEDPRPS", "experiment": "Immune complex kinase assay, IRK from HepG2 cells", "assay_type": "biochemical", "conditions": "concentrations as high as 350 μM", "experimental": "For insulin receptor kinase (IRK) assays, HepG2 human hepatoma cells grown to approximately 80% confluency were washed once with serum-free DMEM and starved for 3 hours at 37° in a CO2 incubator. Subsequently, cells were stimulated with insulin (Eli Lilly, cat# CP-410;10 units/ml/10×10^6 cells) for 10 minutes at room temperature. Following this IRK activation step, cells were washed once with serum free medium, lysed in NP-40 buffer and IRK was immunoprecipitated from the lysates with an anti-IRb antibody (Santa Cruz, Cat.# sc-711, polyclonal IgG). Prior to performing the immune complex kinase assays, the beads were equilibrated with the kinase buffer (30 mM Hepes pH 7.4, 30 mM NaCl, 8 mM MgCl2, 4 mM MnCl2)."}, "[1]": {"test_system": "JAK1/JAK2-dependent STAT activation", "experiment": "EMSA, IL-3 triggered STAT activation in 32Dc11/IL2Rβ cells", "assay_type": "cell-based", "conditions": "10 μg/ml", "experimental": "Electrophoretic Mobility Shift Assays (EMSAs). EMSAs were performed to examine the effects of dimethoxyquinazoline compounds on cytokine-induced STAT activation (Goodman et. al., 1998). […] Cells were collected after 15 minutes and resuspended in lysis buffer (100 mM Tris-HCl pH 8.0, 0.5% NP-40, 10% glycerol, […], 0.1 mM NaVO3, 50 mM NaF, 150 mM NaCl, 1 mM DTT, 3 μg/ml Aprotinin, 2 μg/ml Pepstatin A, 1 μg/ml Leupeptin and 0.2 mM PMSF). Lysates were precleared by centrifugation for 30 min. Cell extracts (approximately 10 μg) were incubated with 2 μg of poly(dI-dC) for 30 minutes, followed by a 30 minutes incubation with 1ng of poly. nucleotide kinase-^32P labeled double stranded DNA oligonucleotide representing the IRF-1 STAT DNA binding sequence (Santa Cruz Biotechnology, Santa Cruz, Calif.). Samples were resolved by non-denaturing PAGE and visualized by autoradiography."}, "JAK3": {"test_system": "JAK3", "experiment": "JAK3 activation in RBL-2H3 mast cells after IgE receptor crosslinking", "conditions": "30 μM", "method": "Cells were lysed at the indicated time points, and SYK immune complexes were subjected to kinase assays in the presence of cold ATP followed by APT immunoblotting (upper panels in 8C & 8D) as well as to SYK Western blot analysis (lower panels in 8C & 8D).\nImmune-Complex Kinase Assays and Western Blot Analyses of Mast Cell Lysates. […] Cells were harvested, lysed (10 mM Tris pH 7.6, 100 mM NaCl, 1% Nonidet P-40, 10% glycerol, 50 mM NaF, 100 mM Na3VO4, 50 mg/ml phenylmethylsulfonyl fluoride, 10 mg/ml aprotonin, 10 mg/ml leupeptin), and the kinases were immunoprecipitated from the lysates, as reported (Uckun et. al., 1995, Science, 267:886-891; Uckun et. al., 1996, Science, 273:1096-1100). […] Immunoprecipitations, and immunoblotting using the ECL chemiluminescence detection system (Amersham Life Sciences) were conducted as described previously (Uckun et. al., 1996, Science, 273:1096-1100)."}, "human JAK3": {"biological_target": "T2, human JAK3 (Homo sapiens, UniProt P52333)", "T2 construct": "KL-2 EBV-transformed human lymphoblastoid B cells (native JAK3 kinase assays); endogenous in cells; host or cells: KL-2 EBV-transformed human lymphoblastoid B cell line", "T2 sequence (P52333 1-1124)": "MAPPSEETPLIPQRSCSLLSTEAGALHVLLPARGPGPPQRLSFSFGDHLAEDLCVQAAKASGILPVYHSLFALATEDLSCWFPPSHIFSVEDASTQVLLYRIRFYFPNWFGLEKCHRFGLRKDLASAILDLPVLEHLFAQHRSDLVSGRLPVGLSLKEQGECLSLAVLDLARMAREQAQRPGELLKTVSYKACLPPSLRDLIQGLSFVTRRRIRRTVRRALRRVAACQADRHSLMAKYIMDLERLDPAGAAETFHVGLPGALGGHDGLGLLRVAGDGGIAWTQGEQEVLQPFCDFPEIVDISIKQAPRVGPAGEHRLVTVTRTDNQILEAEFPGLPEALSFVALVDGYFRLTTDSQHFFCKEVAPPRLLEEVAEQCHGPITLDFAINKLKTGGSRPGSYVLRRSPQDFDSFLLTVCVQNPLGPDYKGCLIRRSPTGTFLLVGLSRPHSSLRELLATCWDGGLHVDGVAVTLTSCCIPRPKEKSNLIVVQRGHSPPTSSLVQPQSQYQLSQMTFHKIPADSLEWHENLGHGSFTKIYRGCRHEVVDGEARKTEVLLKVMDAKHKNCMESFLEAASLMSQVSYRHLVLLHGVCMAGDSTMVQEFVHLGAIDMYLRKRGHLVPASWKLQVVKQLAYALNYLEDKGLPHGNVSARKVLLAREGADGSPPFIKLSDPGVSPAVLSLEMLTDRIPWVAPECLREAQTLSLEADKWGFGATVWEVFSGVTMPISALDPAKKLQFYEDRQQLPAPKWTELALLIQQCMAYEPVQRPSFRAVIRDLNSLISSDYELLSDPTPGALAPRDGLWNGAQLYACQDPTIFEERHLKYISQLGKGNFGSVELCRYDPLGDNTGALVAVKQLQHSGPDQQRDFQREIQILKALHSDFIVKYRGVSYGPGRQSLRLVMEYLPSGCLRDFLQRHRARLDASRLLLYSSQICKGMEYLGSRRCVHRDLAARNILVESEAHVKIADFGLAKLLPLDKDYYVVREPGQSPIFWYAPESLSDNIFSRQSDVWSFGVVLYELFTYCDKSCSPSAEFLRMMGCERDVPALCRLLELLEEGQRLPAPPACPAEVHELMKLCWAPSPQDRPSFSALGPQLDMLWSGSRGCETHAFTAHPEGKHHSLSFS", "experiment": "Immune complex kinase assay, JAK3 immunoprecipitated from KL2 EBV-transformed lymphoblastoid B cell line", "assay_type": "biochemical", "conditions": "JAK3 immunoprecipitated from KL2 cells", "experimental": "KL-2 EBV-transformed human lymphoblastoid B cells (native JAK3 kinase assays) or insect ovary cells (recombinant JAK3 kinase assays) were lysed with NP-40 lysis buffer (50 mM Tris, pH 8, 150 mM NaCl, 5 mM EDTA, 1% NP-40, 100 μM sodium orthovanadate, 100 μM sodium molybdate, 8 μg/ml aprotinin, 5 μg/ml leupeptin, and 500 μM PMSF) and centrifuged 10 minutes at 13000×g to remove insoluble material. Samples were immunoprecipitated with antisera prepared against JAK3. The antisera were diluted and immune complexes collected by incubation with 15 μl protein A Sepharose. After 4 washes with NP-40 lysis buffer, the protein A Sepharose beads were washed once in kinase buffer (20 mM MOPS, pH 7.0, 10 mM MgCl2) and resuspended in the same buffer. Reactions were initiated by the addition of 25 μCi γ[^32P] ATP (5000 Ci/mMole) and unlabeled ATP to a final concentration of 5 μM. Reactions were terminated by boiling for 4 min in SDS sample buffer. Samples were run on 9.5% SDS polyacrylamide gels and labeled proteins will be detected by autoradiography. […] For each drug concentration, a kinase activity index (KA) was determined by comparing the kinase activity in phosphorimager units (PIU) to that of the baseline sample. […]"}, "recombinant JAK2": {"biological_target": "recombinant JAK2 (Homo sapiens, UniProt O60674)", "sequence (O60674 whole entry)": "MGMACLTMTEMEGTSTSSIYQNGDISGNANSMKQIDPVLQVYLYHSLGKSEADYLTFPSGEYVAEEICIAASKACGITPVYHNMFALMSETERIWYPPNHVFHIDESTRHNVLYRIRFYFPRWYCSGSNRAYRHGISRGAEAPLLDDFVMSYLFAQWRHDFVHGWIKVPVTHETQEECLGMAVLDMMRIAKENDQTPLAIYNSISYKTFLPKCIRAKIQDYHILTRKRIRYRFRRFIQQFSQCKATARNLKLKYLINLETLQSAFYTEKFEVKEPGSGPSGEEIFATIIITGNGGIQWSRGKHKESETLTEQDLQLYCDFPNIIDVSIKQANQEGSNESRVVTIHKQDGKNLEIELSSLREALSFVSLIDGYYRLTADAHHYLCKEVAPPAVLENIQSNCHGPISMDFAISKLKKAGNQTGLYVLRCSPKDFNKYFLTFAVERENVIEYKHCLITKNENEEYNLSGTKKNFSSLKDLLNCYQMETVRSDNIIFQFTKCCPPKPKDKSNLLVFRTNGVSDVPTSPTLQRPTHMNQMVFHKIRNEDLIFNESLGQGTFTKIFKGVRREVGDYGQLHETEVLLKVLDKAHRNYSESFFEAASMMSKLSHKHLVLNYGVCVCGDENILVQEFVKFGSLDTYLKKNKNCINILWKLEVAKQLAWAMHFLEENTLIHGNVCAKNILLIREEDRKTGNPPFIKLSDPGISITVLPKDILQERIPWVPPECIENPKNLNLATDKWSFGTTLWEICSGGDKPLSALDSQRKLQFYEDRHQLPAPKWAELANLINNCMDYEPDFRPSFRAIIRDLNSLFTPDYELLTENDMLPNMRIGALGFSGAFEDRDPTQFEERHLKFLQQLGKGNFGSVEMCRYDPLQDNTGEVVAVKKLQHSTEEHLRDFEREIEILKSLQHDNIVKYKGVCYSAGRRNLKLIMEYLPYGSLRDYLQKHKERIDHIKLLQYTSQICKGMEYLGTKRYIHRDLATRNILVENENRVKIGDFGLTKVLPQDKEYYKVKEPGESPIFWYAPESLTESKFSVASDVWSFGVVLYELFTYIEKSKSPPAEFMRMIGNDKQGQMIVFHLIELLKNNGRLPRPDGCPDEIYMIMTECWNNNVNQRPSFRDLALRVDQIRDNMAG", "experiment": "Immune complex kinase assay, recombinant JAK2", "conditions": "FIG. 6C & D", "method": "In FIGS. 6A-6D, JAK3, JAK1, and JAK2 were immunoprecipitated from Sf21 insect ovary cells transfected with the appropriate baculovirus expression vectors and treated with WHI-P131, then subjected to in vitro kinase assays as described in the Examples below. The enzymatic activity of JAKs was determined by measuring autophosphorylation in a 10 minute kinase assay, as described in the Examples below. The kinase activity (KA) levels were expressed as percentage of baseline activity (%CON).\nImmune Complex Kinase Assays. Sf21 (IPLB-SF21-AE) cells (Vassilev et. al., 1999, J. Biol. Chem,. 274:1646-1656) derived from the ovarian tissue of the fall armyworm Spodotera frugiperda, were obtained from Invitrogen and maintained at 26-28° C. in Grace's insect cell medium supplemented with 10% FBS and 1.0% antibiotic/antimycotic (GIBCO-BRL). Stock cells were maintained in suspension at 0.2-1.6×10^6/ml in 600 ml total culture volume in 1 L Bellco spinner flasks at 60-90 rpm. Cell viability was maintained at 95-100% as determined by trypan blue dye exclusion.\nSf21 cells were infected with a baculovirus expression vector for BTK, SYK, JAK1, JAK2, or JAK3, as previously reported (Mahajan et. al., 1999, J. Biol. Chem., 274:1646-1656). […]"}},
  "data": [
    {"smiles": "COc1cc2ncnc(Nc3ccc(O)cc3)c2cc1OC", "note": "[WHI-P131, 4-(4′-Hydroxylphenyl)-amino-6,7-dimethoxyquinazoline]", "values": [
      {"measurement": "effect on enzymatic activity of IRK", "setting": "IRK", "value": "did not affect"},
      {"measurement": "JAK1/JAK2-dependent STAT activation after stimulation with IL-3", "setting": "[1]", "value": "did not affect"},
      {"measurement": "JAK3 activation after IgE receptor crosslinking", "setting": "JAK3", "value": "abrogated"},
      {"measurement": "IC50", "setting": "human JAK3", "value": 9.1, "unit": "µM"},
      {"measurement": "inhibitory activity against recombinant JAK2", "setting": "recombinant JAK2", "value": "did not exhibit any detectable inhibitory activity"}
    ]}
  ]
}
